Test system: B16V mouse melanoma cells
Assay: Depigmentation effect on melanoma cell cultures (inhibition of pigmentation / melanin inhibition)
Type: cell-based
Settings: for IC50: Mus musculus, B16V cells, 0.3 mM tyrosine and 10 nM α-MSH, 96 h incubation, absorption at 400 nm
Method: B16V mouse melanoma cells are disseminated in a 96-well micro-titre plate in a concentration of 7.5×10^3 cells/well. After cultivation for 24 h at 37° C. and 5% CO2 in RPMI medium, enriched with 10% foetal calf serum, various concentrations of the test substances and 0.3 mM tyrosine and 10 nM α-MSH (α-melanocyte stimulating hormone) are added and incubated for a further 96 h. The maximum concentration of the test substances used corresponds to 0.1 times the value of the IC20 value of the cytotoxicity assay. Only tyrosine and α-MSH are added to the controls. After incubation, sodium hydroxide solution (final concentrations: 1 M) is added to the culture medium and the absorption (A) is measured after 3 h at 400 nm.
The inhibition of pigmentation in the presence of the test compounds was calculated using the following equation:
Inhibition of pigmentation (%)=100−[(Atest compound/Acontrol)×100]
wherein Atest compound=absorption of the wells with test substance and with cells Acontrol=absorption of the wells without test substance, but with cells
From the inhibition of pigmentation (%) in a series of dilutions of test compounds, the IC50 for each test compound is calculated. This is the concentration of a test compound at which pigmentation is inhibited by 50%. The results are compiled in Table 1:
Experimental procedure as described in Example 1. SymWhite® 377 stands for Phenylethyl resorcinol.
The Synergy Index (SI)^1 is calculated according to Kull's equation as follows: […]
with A: individual result of substance A B: individual result of substance B C: result of the mixture of A and B D: percentage of substance Ain the mixture E: percentage of substance B in the mixture ^1 The calculation of the synergy index (SI-value) was carried out on the basis of following literature: D. C. Steinberg, Cosmetics & Toiletries 2000, 115 (11), 59-62 and F. C. Kull et al., Applied Microbiology 1961, 9, 538-541.
In contrast to the given examples in the literature, in which reduced values for A, B and C (i.e. the minimal concentration of inhibition in antimicrobial tests) mean better activity and consequently SI values <1 document a synergistic effect, increasing values of the here analysed melanin inhibition mean better efficacy. According to Kull's equation the evidence for a synergistic effect results for SI values >1. In the experiments with Sclareolide and SyrnWhite® 377 the calculated SI values obviously exceed 1 (experiments 1 and 2). From this it follows that a composition of Sclareolide and SymWhite® 377 constitutes a potent synergistic combination of active ingredients.

IC50 [µM] | Compound | Melanin inhibition (Ex. 1, Kull variable A, conc. 3.2 μm) [%] | Melanin inhibition (Ex. 2, Kull variable A, conc. 3.2 μm) [%] | Melanin inhibition (Ex. 1, Kull variable B, conc. 1.6 μm) [%] | Melanin inhibition (Ex. 2, Kull variable B, conc. 1.6 μm) [%]
452 | O=c1cc(CO)occ1O [Kojic acid, 5-hydroxy-2-hydroxymethyl-4-pyranone] | – | – | – | –
10.2 | CC1(C)CCC[C@]2(C)C3CC(=O)O[C@]3(C)CC[C@@H]12 (stereo partly drawn) [Sclareolide, (3aR,5aS,9aS,9bR)-decahydro-3a,6,6,9a-tetramethyl-naphtha[2,1-b]furan-2(1H)-one] | 50.0 | 35.8 | – | –
– | CC(c1ccccc1)c1ccc(O)cc1O (stereo not shown) [SymWhite ® 377, 4-(1-phenylethyl)1,3-dihydroxybenzene] | – | – | 59.8 | 55.9
67 | OC[C@H]1O[C@@H](Oc2ccc(O)cc2)[C@H](O)[C@@H](O)[C@@H]1O [beta-Arbutin] | – | – | – | –
